Laboratory results published in patent publication US8247211B2, “Glycopeptide antibiotics” (American Cyanamid Company, priority 2001, dated 2012).
In brackets after ≈: the same amount, converted by molar mass.

Experiments:
Assay in all cases: In vitro antibacterial evaluation: minimum inhibitory concentration (MIC), broth dilution method
Assay type in all cases: cell-based
Enterococcus sp. = conditions: 18 hours at 35° C.
Procedure, shortened: (§1)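 NCCLS M7-A2 broth dilution; Muller-Hinton II […]; 5×10^5 CFU/mL; 64-0.06 μg/mL. MIC = lowest concentration with no growth.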

Escherichia coli = conditions: 18 hours at 35° C.
Procedure, shortened: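 Broth dilution per NCCLS M7-A2 in Muller-Hinton II […], inoculum 5×10^5 CFU/mL, antibiotic tested over 64-0.06 μg/mL. MIC is taken as the lowest concentration that inhibits growth. Panel includes recent clinical isolates resistant to methicillin, penicillin and/or vancomycin.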

Staphylococcus sp. = system: Staphylococcus sp.
Procedure, shortened: as §1

Streptococcus sp. = conditions: 18 hours at 35° C.
Procedure, shortened: as §1

[1] = broth dilution, inoculum 5×10^5 CFU/mL
[2] = Streptococcus agalactiae (GC 4564)
[3] = Streptococcus pneumoniae (ATCC 6301)
[4] = Streptococcus pneumoniae (GC 1894)
[5] = Streptococcus pneumoniae (GC 4565)
[6] = Streptococcus pyogenes (GC 4563)

CC(c1ccccc1)C1NC(=O)CNC(=O)C(CO)NC(=O)C(C(O)C2CNC(=N)N2C2OC(CO)C(O)C(O)C2O)NC(=O)C(C(O)C2CNC(=N)N2)NC(=O)C(Cc2ccc(OC3OC(CO)C(OC4OC5COC(C)(c6ccc(F)cc6)OC5C(O)C4O)C(O)C3O)cc2)NC1=O (stereo not drawn) [Example 216, Cyclo[glycyl-β-methylphenylalanyl-O-[4-O-[4,6-O-(4-fluoro-α-methylbenzylidene)hexopyranosyl]hexopyranosyl]tyrosyl-3-(2-iminoimidazolidin-4-yl)seryl-3-(3-hexopyranosyl-2-iminoimidazolidin-4-yl)serylseryl]]
MIC Enterococcus avium (GC 4558) (Enterococcus sp.; Enterococcus avium (GC 4558)): 4 µg/mL (≈ 2.83 µM) | MIC Enterococcus faecalis (ATCC 29212) (Enterococcus sp.; Enterococcus faecalis (ATCC 29212)): 4 µg/mL (≈ 2.83 µM) | MIC Enterococcus faecalis (GC 2242) (Enterococcus sp.; Enterococcus faecalis (GC 2242)): 4 µg/mL (≈ 2.83 µM) | MIC Enterococcus faecalis (GC 2691) (Enterococcus sp.; Enterococcus faecalis (GC 2691)): 4 µg/mL (≈ 2.83 µM) | MIC Enterococcus faecalis (GC 3059) (Enterococcus sp.; Enterococcus faecalis (GC 3059)): 4 µg/mL (≈ 2.83 µM) | MIC Enterococcus faecalis (GC 4552) (Enterococcus sp.; Enterococcus faecalis (GC 4552)): 4 µg/mL (≈ 2.83 µM) | MIC Enterococcus faecalis (GC 4553) (Enterococcus sp.; Enterococcus faecalis (GC 4553)): 4 µg/mL (≈ 2.83 µM) | MIC Enterococcus faecalis (GC 4554) (Enterococcus sp.; Enterococcus faecalis (GC 4554)): 4 µg/mL (≈ 2.83 µM) | MIC Enterococcus faecalis (GC 6189) (Enterococcus sp.; Enterococcus faecalis (GC 6189)): 4 µg/mL (≈ 2.83 µM) | MIC Enterococcus faecium (GC 2243) (Enterococcus sp.; Enterococcus faecium (GC 2243)): 4 µg/mL (≈ 2.83 µM) | MIC Enterococcus faecium (GC 4556) (Enterococcus sp.; Enterococcus faecium (GC 4556)): 4 µg/mL (≈ 2.83 µM) | MIC Enterococcus faecium (GC 4557) (Enterococcus sp.; Enterococcus faecium (GC 4557)): 4 µg/mL (≈ 2.83 µM) | MIC Enterococcus avium (GC 4558) (Enterococcus sp.; [1]): 4 µg/mL (≈ 2.83 µM) | MIC Enterococcus faecalis (ATCC 29212) (Enterococcus sp.; [1]): 4 µg/mL (≈ 2.83 µM) | MIC Enterococcus faecalis (GC 2242) (Enterococcus sp.; [1]): 4 µg/mL (≈ 2.83 µM) | MIC Enterococcus faecalis (GC 2691) (Enterococcus sp.; [1]): 4 µg/mL (≈ 2.83 µM) | MIC Enterococcus faecalis (GC 3059) (Enterococcus sp.; [1]): 4 µg/mL (≈ 2.83 µM) | MIC Enterococcus faecalis (GC 4552) (Enterococcus sp.; [1]): 4 µg/mL (≈ 2.83 µM) | MIC Enterococcus faecalis (GC 4553) (Enterococcus sp.; [1]): 4 µg/mL (≈ 2.83 µM) | MIC Enterococcus faecalis (GC 4554) (Enterococcus sp.; [1]): 4 µg/mL (≈ 2.83 µM) | MIC Enterococcus faecalis (GC 6189) (Enterococcus sp.; [1]): 4 µg/mL (≈ 2.83 µM) | MIC Enterococcus faecium (GC 2243) (Enterococcus sp.; [1]): 4 µg/mL (≈ 2.83 µM) | MIC Enterococcus faecium (GC 4556) (Enterococcus sp.; [1]): 4 µg/mL (≈ 2.83 µM) | MIC Enterococcus faecium (GC 4557) (Enterococcus sp.; [1]): 4 µg/mL (≈ 2.83 µM) | MIC Escherichia coli (ATCC 25922) (Escherichia coli; Escherichia coli (ATCC 25922)): 32 µg/mL (≈ 22.6 µM) | MIC Escherichia coli (GC 4559) (Escherichia coli; Escherichia coli (GC 4559)): 16 µg/mL (≈ 11.3 µM) | MIC Escherichia coli (GC 4560) (Escherichia coli): 2 µg/mL (≈ 1.41 µM) | MIC Staphylococcus aureus (ATCC 29213) (Staphylococcus sp.; strain ATCC 29213): 2 µg/mL (≈ 1.41 µM) | MIC Staphylococcus aureus (GC 1131) (Staphylococcus sp.; strain GC 1131): 2 µg/mL (≈ 1.41 µM) | MIC Staphylococcus aureus (GC 3051) (Staphylococcus sp.; strain GC 3051): 2 µg/mL (≈ 1.41 µM) | MIC Staphylococcus aureus (GC 3053) (Staphylococcus sp.; strain GC 3053): 2 µg/mL (≈ 1.41 µM) | MIC Staphylococcus aureus (GC 4541) (Staphylococcus sp.; strain GC 4541): 1 µg/mL (≈ 0.707 µM) | MIC Staphylococcus aureus (GC 4542) (Staphylococcus sp.; strain GC 4542): 1 µg/mL (≈ 0.707 µM) | MIC Staphylococcus aureus-SMITH (GC 4543) (Staphylococcus sp.; strain GC 4543): 2 µg/mL (≈ 1.41 µM) | MIC Staphylococcus aureus (GC 4544) (Staphylococcus sp.; strain GC 4544): 2 µg/mL (≈ 1.41 µM) | MIC Staphylococcus aureus (GC 4545) (Staphylococcus sp.; strain GC 4545): 1 µg/mL (≈ 0.707 µM) | MIC Staphylococcus haemolyticus (GC 4546) (Staphylococcus sp.; strain GC 4546): 1 µg/mL (≈ 0.707 µM) | MIC Coagulase Negative Staphylococcus (GC 4547) (Staphylococcus sp.; strain GC 4547): 2 µg/mL (≈ 1.41 µM) | MIC Coagulase Negative Staphylococcus (GC 4548) (Staphylococcus sp.; strain GC 4548): 1 µg/mL (≈ 0.707 µM) | MIC Coagulase Negative Staphylococcus (GC 4549) (Staphylococcus sp.; strain GC 4549): 1 µg/mL (≈ 0.707 µM) | MIC Coagulase Negative Staphylococcus (GC 4551) (Staphylococcus sp.; strain GC 4551): 2 µg/mL (≈ 1.41 µM) | MIC Coagulase Negative Staphylococcus (GC 6257) (Staphylococcus sp.; strain GC 6257): 1 µg/mL (≈ 0.707 µM) | MIC Streptococcus agalactiae (GC 4564) (Streptococcus sp.; [2]): 0.5 µg/mL (≈ 0.353 µM) | MIC Streptococcus pneumoniae (ATCC 6301) (Streptococcus sp.; [3]): 0.25 µg/mL (≈ 0.177 µM) | MIC Streptococcus pneumoniae (GC 1894) (Streptococcus sp.; [4]): <0.06 µg/mL | MIC Streptococcus pneumoniae (GC 4565) (Streptococcus sp.; [5]): 0.25 µg/mL (≈ 0.177 µM) | MIC Streptococcus pyogenes (GC 4563) (Streptococcus sp.; [6]): 0.5 µg/mL (≈ 0.353 µM) | MIC Streptococcus agalactiae (GC 4564) (Streptococcus sp.; [1]): 0.5 µg/mL (≈ 0.353 µM) | MIC Streptococcus pneumoniae (ATCC 6301) (Streptococcus sp.; [1]): 0.25 µg/mL (≈ 0.177 µM) | MIC Streptococcus pneumoniae (GC 1894) (Streptococcus sp.; [1]): <0.06 µg/mL | MIC Streptococcus pneumoniae (GC 4565) (Streptococcus sp.; [1]): 0.25 µg/mL (≈ 0.177 µM) | MIC Streptococcus pyogenes (GC 4563) (Streptococcus sp.; [1]): 0.5 µg/mL (≈ 0.353 µM)

COc1ccc2cc(COC3C(OC4C(CO)OC(Oc5ccc(CC6NC(=O)C(C(C)c7ccccc7)NC(=O)CNC(=O)C(CO)NC(=O)C(C(O)C7CNC(=N)N7C7OC(CO)C(O)C(O)C7O)NC(=O)C(C(O)C7CNC(=N)N7)NC6=O)cc5)C(O)C4O)OC(CO)C(O)C3O)ccc2c1 (stereo not drawn) [Example 230c, Cyclo[glycyl-β-methylphenylalanyl-O-[4-O-[2-O-[(6-methoxy-2-naphthyl)methyl]hexopyranosyl]hexopyranosyl]tyrosyl-3-(2-iminoimidazolidin-4-yl)seryl-3-(3-hexopyranosyl-2-iminoimidazolidin-4-yl)serylseryl]]
MIC Enterococcus faecium (GC 4557) (Enterococcus sp.; Enterococcus faecium (GC 4557)): 32 µg/mL (≈ 21.8 µM) | MIC Enterococcus faecium (GC 4557) (Enterococcus sp.; [1]): 32 µg/mL (≈ 21.8 µM) | MIC Escherichia coli (GC 4560) (Escherichia coli): 32 µg/mL (≈ 21.8 µM) | MIC Coagulase Negative Staphylococcus (GC 4547) (Staphylococcus sp.; Coagulase Negative Staphylococcus (GC 4547), 18 hours at 35° C.): 64 µg/mL (≈ 43.7 µM) | MIC Coagulase Negative Staphylococcus (GC 4548) (Staphylococcus sp.; Coagulase Negative Staphylococcus (GC 4548), 18 hours at 35° C.): 64 µg/mL (≈ 43.7 µM) | MIC Coagulase Negative Staphylococcus (GC 4549) (Staphylococcus sp.; Coagulase Negative Staphylococcus (GC 4549), 18 hours at 35° C.): 64 µg/mL (≈ 43.7 µM) | MIC Coagulase Negative Staphylococcus (GC 4551) (Staphylococcus sp.; Coagulase Negative Staphylococcus (GC 4551), 18 hours at 35° C.): 64 µg/mL (≈ 43.7 µM) | MIC Coagulase Negative Staphylococcus (GC 6257) (Staphylococcus sp.; Coagulase Negative Staphylococcus (GC 6257), 18 hours at 35° C.): 32 µg/mL (≈ 21.8 µM) | MIC Staphylococcus aureus (GC 4541) (Staphylococcus sp.; Staphylococcus aureus (GC 4541), 18 hours at 35° C.): 64 µg/mL (≈ 43.7 µM) | MIC Staphylococcus aureus-SMITH (GC 4543) (Staphylococcus sp.; Staphylococcus aureus-SMITH (GC 4543), 18 hours at 35° C.): 64 µg/mL (≈ 43.7 µM) | MIC Staphylococcus haemolyticus (GC 4546) (Staphylococcus sp.; Staphylococcus haemolyticus (GC 4546), 18 hours at 35° C.): 64 µg/mL (≈ 43.7 µM) | MIC Streptococcus agalactiae (GC 4564) (Streptococcus sp.; [2]): 32 µg/mL (≈ 21.8 µM) | MIC Streptococcus pneumoniae (ATCC 6301) (Streptococcus sp.; [3]): 32 µg/mL (≈ 21.8 µM) | MIC Streptococcus pneumoniae (GC 1894) (Streptococcus sp.; [4]): 16 µg/mL (≈ 10.9 µM) | MIC Streptococcus pneumoniae (GC 4565) (Streptococcus sp.; [5]): 32 µg/mL (≈ 21.8 µM) | MIC Streptococcus pyogenes (GC 4563) (Streptococcus sp.; [6]): 64 µg/mL (≈ 43.7 µM) | MIC Streptococcus agalactiae (GC 4564) (Streptococcus sp.; [1]): 32 µg/mL (≈ 21.8 µM) | MIC Streptococcus pneumoniae (ATCC 6301) (Streptococcus sp.; [1]): 32 µg/mL (≈ 21.8 µM) | MIC Streptococcus pneumoniae (GC 1894) (Streptococcus sp.; [1]): 16 µg/mL (≈ 10.9 µM) | MIC Streptococcus pneumoniae (GC 4565) (Streptococcus sp.; [1]): 32 µg/mL (≈ 21.8 µM) | MIC Streptococcus pyogenes (GC 4563) (Streptococcus sp.; [1]): 64 µg/mL (≈ 43.7 µM)
